{
  "source": "ChEMBL document CHEMBL1141326",
  "about": "“An HIV RNase H inhibitory 1,3,4,5-tetragalloylapiitol from the African plant Hylodendron gabunensis” (J Nat Prod, 2007)",
  "key": {"[1]": {"assay": "Inhibition of human RNase H by FRET assay"}, "[2]": {"assay": "Inhibition of HIV1 RNase H by FRET assay", "design": "species or system Human immunodeficiency virus 1"}, "[3]": {"system": "Escherichia coli", "assay": "Inhibition of Escherichia coli RNase H at 10 uM by FRET assay"}, "[4]": {"assay": "Inhibition of HIV2 RNase H by FRET assay", "design": "species or system Human immunodeficiency virus 2"}},
  "note": "Activity calls are given as the source filed them. The rule behind the calls is not given here.",
  "data": [
    {"compound": "O=C(OC[C@H](OC(=O)c1cc(O)c(O)c(O)c1)C(O)(COC(=O)c1cc(O)c(O)c(O)c1)COC(=O)c1cc(O)c(O)c(O)c1)c1cc(O)c(O)c(O)c1", "values": [
      {"measurement": "IC50", "setting": "[1]", "result": 1500, "unit": "nM"},
      {"measurement": "IC50", "setting": "[2]", "result": 240, "unit": "nM"},
      {"measurement": "Activity", "setting": "[3]", "result": "inactive"},
      {"measurement": "IC50", "setting": "[4]", "result": 130, "unit": "nM"}
    ]}
  ]
}
